Source: patent publication US20240190890A1, “MK2 INHIBITORS AND USES THEREOF” (Bristol-Myers Squibb Company, priority 2022, published 2024)

Target: p38a activated, mitogen-activated protein kinase-activated protein kinase 2 (MAPKAP-K2 or MK2) enzyme (Homo sapiens (Human), UniProt P49137)
Experiment: MK2 Omnia continuous-read kinase assay for compound potency
Assay type: biochemical
Conditions: [MK-2]=0.4 nM, [ATP]=10 μM, [ST3-Sox]=10 μM; room temperature
In short: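 p38a-activated MK2 (0.4 nM) with 10 μM ATP (apparent Km) and 10 μM S/T3-Sox peptide in Tris pH 7.5 buffer with MgCl2, EGTA and DTT. Fluorescence (ex360/em485) read continuously for 120 min at room temperature. IC50 from initial linear slopes; apparent kinact/KI from kobs of exponential progress-curve fits.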

Chain of p38a activated, mitogen-activated protein kinase-activated protein kinase 2 (MAPKAP-K2 or MK2) enzyme (P49137 whole entry): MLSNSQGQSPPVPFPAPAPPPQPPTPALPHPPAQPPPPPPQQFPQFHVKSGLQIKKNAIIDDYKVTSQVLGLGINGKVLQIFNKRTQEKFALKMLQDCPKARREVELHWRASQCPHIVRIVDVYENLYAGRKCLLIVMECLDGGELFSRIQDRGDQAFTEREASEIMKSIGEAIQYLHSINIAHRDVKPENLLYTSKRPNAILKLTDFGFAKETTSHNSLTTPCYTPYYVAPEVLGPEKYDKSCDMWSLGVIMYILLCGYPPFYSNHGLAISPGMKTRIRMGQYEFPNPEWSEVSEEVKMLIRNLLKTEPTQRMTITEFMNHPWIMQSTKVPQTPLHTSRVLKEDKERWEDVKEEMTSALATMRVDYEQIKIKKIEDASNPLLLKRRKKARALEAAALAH

| Compound | IC50 |
| --- | --- |
| [2H]C([2H])([2H])C(O)c1cnc(C=C)cc1-c1ccc2c(ccc3sc4c(c32)NC[C@@H](C)NC4=O)n1 (stereo partly drawn) [Example I-259, (10R)-3-(5-(1-hydroxyethyl-2,2,2-d3)-2-vinylpyridin-4-yl)-10-methyl-9,10,11,12-tetrahydro-8H-[1,4]diazepino[5′,6′:4,5]thieno[3,2-f]quinolin-8-one] | 15 nM |
| C=Cc1nc(C(=O)OCC)c(-c2ccc3c(ccc4sc5c(c43)NC[C@@H](C)NC5=O)n2)s1 [Example I-234, ethyl (R)-5-(10-methyl-8-oxo-9,10,11,12-tetrahydro-8H-[1,4]diazepino[5′,6′:4,5]thieno[3,2-f]quinolin-3-yl)-2-vinylthiazole-4-carboxylate] | 18 nM |
| [2H]C([2H])([2H])c1cnc(C=C)cc1-c1ccc2c(ccc3sc4c(c32)NC[C@@H](C)NC4=O)n1 [Example I-142, (R)-10-methyl-3-(5-(methyl-d3)-2-vinylpyridin-4-yl)-9,10,11,12-tetrahydro-8H-[1,4]diazepino[5′,6′:4,5]thieno[3,2-f]quinolin-8-one] | 9 nM |
| C#Cc1cc(-c2ccc3c(ccc4sc5c(c43)NC[C@@H](C)NC5=O)n2)cc(N2CCCCC2)n1 [Example I-178, (R)-3-(2-ethynyl-6-(piperidin-1-yl)pyridin-4-yl)-10-methyl-9,10,11,12-tetrahydro-8H-[1,4]diazepino[5′,6′:4,5]thieno[3,2-f]quinolin-8-one] | 185 nM |
| C=Cc1cc(-c2ccc3c(ccc4sc5c(c43)NC[C@@H](C)NC5=O)n2)c(CN2CC(F)(F)C2)cn1 [Example I-211, (R)-3-(5-((3,3-difluoroazetidin-1-yl)methyl)-2-vinylpyridin-4-yl)-10-methyl-9,10,11,12-tetrahydro-8H-[1,4]diazepino[5′,6′:4,5]thieno[3,2-f]quinolin-8-one] | 275 nM |
| C=Cc1cc(-c2ccc3c(ccc4sc5c(c43)NC[C@@H](C)NC5=O)n2)cc(CN2CCC(OC(F)(F)F)CC2)n1 [Example I-189, (R)-10-methyl-3-(2-((4-(trifluoromethoxy)piperidin-1-yl)methyl)-6-vinylpyridin-4-yl)-9,10,11,12-tetrahydro-8H-[1,4]diazepino[5′,6′:4,5]thieno[3,2-f]quinolin-8-one] | 206 nM |
| [2H]C([2H])([2H])N1CCN(c2cc(-c3ccc4c(ccc5sc6c(c54)NC[C@@H](C)NC6=O)n3)cc(C=C)n2)CC1 [Example I-171, (R)-10-methyl-3-(2-(4-(methyl-d3)piperazin-1-yl)-6-vinylpyridin-4-yl)-9,10,11,12-tetrahydro-8H-[1,4]diazepino[5′,6′:4,5]thieno[3,2-f]quinolin-8-one] | 13 nM |
| C=Cc1ncn(-c2ccc3c(ccc4sc5c(c43)NC[C@@H](C)NC5=O)n2)n1 [Example I-207, (R)-10-methyl-3-(3-vinyl-1H-1,2,4-triazol-1-yl)-9,10,11,12-tetrahydro-8H-[1,4]diazepino[5′,6′:4,5]thieno[3,2-f]quinolin-8-one] | 26 nM |
| C=Cc1ncc(-c2ccc3c(ccc4sc5c(c43)NC[C@@H](C)NC5=O)n2)[nH]1 [Example I-150, (R)-10-methyl-3-(2-vinyl-1H-imidazol-5-yl)-9,10,11,12-tetrahydro-8H-[1,4]diazepino[5′,6′:4,5]thieno[3,2-f]quinolin-8-one] | 14 nM |
| C=Cc1cnn(-c2ccc3c(ccc4sc5c(c43)NC[C@@H](C)NC5=O)n2)c1 [Example I-148, (R)-10-methyl-3-(4-vinyl-1H-pyrazol-1-yl)-9,10,11,12-tetrahydro-8H-[1,4]diazepino[5′,6′:4,5]thieno[3,2-f]quinolin-8-one] | 101 nM |
| C#Cc1nc(CO)cc(-c2ccc3c(ccc4sc5c(c43)NC[C@@H](C)NC5=O)n2)n1 [Example I-86, (R)-3-(2-ethynyl-6-(hydroxymethyl)pyrimidin-4-yl)-10-methyl-9,10,11,12-tetrahydro-8H-[1,4]diazepino[5′,6′:4,5]thieno[3,2-f]quinolin-8-one] | 23 nM |
| C=Cc1cccc(-c2ccc3c(ccc4sc5c(c43)NC[C@@H](C)NC5=O)n2)n1 [Example I-54, (R)-10-methyl-3-(6-vinylpyridin-2-yl)-9,10,11,12-tetrahydro-8H-[1,4]diazepino[5′,6′:4,5]thieno[3,2-f]quinolin-8-one] | 61 nM |
| C=Cc1cncc(-c2ccc3c(ccc4sc5c(c43)NC[C@@H](C)NC5=O)n2)c1 [Example I-82, (R)-10-methyl-3-(5-vinylpyridin-3-yl)-9,10,11,12-tetrahydro-8H-[1,4]diazepino[5′,6′:4,5]thieno[3,2-f]quinolin-8-one] | 21 nM |
| C=Cc1cc(-c2ccc3c(ccc4sc5c(c43)NC[C@@H](C)NC5=O)n2)c(OC)cn1 [Example I-256, (R)-3-(5-methoxy-2-vinylpyridin-4-yl)-10-methyl-9,10,11,12-tetrahydro-8H-[1,4]diazepino[5′,6′:4,5]thieno[3,2-f]quinolin-8-one] | 20 nM |
| C=Cc1cnc(C)c(-c2ccc3c(ccc4sc5c(c43)NC[C@@H](C)NC5=O)n2)n1 [Example I-181, (R)-10-methyl-3-(3-methyl-6-vinylpyrazin-2-yl)-9,10,11,12-tetrahydro-8H-[1,4]diazepino[5′,6′:4,5]thieno[3,2-f]quinolin-8-one] | 39 nM |
| [2H]c1c(C=C)ncc(C([2H])([2H])[2H])c1-c1ccc2c(ccc3sc4c(c32)NC[C@@H](C)NC4=O)n1 [Example I-249, (R)-10-methyl-3-(5-(methyl-d3)-2-vinylpyridin-4-yl-3-d)-9,10,11,12-tetrahydro-8H-[1,4]diazepino[5′,6′:4,5]thieno[3,2-f]quinolin-8-one] | 4 nM |
| C=Cc1cc(-c2ccc3c(ccc4sc5c(c43)NC[C@@H](C)NC5=O)n2)cc(N2CCCCC2)n1 [Example I-177, (R)-10-methyl-3-(2-(piperidin-1-yl)-6-vinylpyridin-4-yl)-9,10,11,12-tetrahydro-8H-[1,4]diazepino[5′,6′:4,5]thieno[3,2-f]quinolin-8-one] | 140 nM |
| C[C@@H]1CNc2c(sc3ccc4nc(-n5ccc(Cl)n5)ccc4c23)C(=O)N1 [Example I-165, (R)-3-(3-chloro-1H-pyrazol-1-yl)-10-methyl-9,10,11,12-tetrahydro-8H-[1,4]diazepino[5′,6′:4,5]thieno[3,2-f]quinolin-8-one] | 81 nM |
| [2H]C([2H])([2H])C(O)c1cnc(C=C)cc1-c1ccc2c(ccc3sc4c(c32)NC[C@@H](C)NC4=O)n1 (stereo partly drawn) [Example I-243, (10R)-3-(5-(1-hydroxyethyl-2,2,2-d3)-2-vinylpyridin-4-yl)-10-methyl-9,10,11,12-tetrahydro-8H-[1,4]diazepino[5′,6′:4,5]thieno[3,2-f]quinolin-8-one] | 10 nM |
| C[C@@H]1CNc2c(sc3ccc4nc(-c5cc(Cl)nc(N6CCN(C)CC6)c5)ccc4c23)C(=O)N1 [Example I-94, (R)-3-(2-chloro-6-(4-methylpiperazin-1-yl)pyridin-4-yl)-10-methyl-9,10,11,12-tetrahydro-8H-[1,4]diazepino[5′,6′:4,5]thieno[3,2-f]quinolin-8-one] | 43 nM |
| C[C@@H]1CNc2c(sc3ccc4nc(-c5nc(Cl)ncc5COC5(C)CCC5)ccc4c23)C(=O)N1 [Example I-27, (R)-3-(2-chloro-5-((1-methylcyclobutoxy)methyl)pyrimidin-4-yl)-10-methyl-9,10,11,12-tetrahydro-8H-[1,4]diazepino[5′,6′:4,5]thieno[3,2-f]quinolin-8-one] | 391 nM |
| C=Cc1cc(-c2ccc3c(ccc4sc5c(c43)NC[C@@H](C)NC5=O)n2)cc(CN2CCC3(CC2)CC3(F)F)n1 [Example I-141, (R)-3-(2-((1,1-difluoro-6-azaspiro[2.5]octan-6-yl)methyl)-6-vinylpyridin-4-yl)-10-methyl-9,10,11,12-tetrahydro-8H-[1,4]diazepino[5′,6′:4,5]thieno[3,2-f]quinolin-8-one] | 111 nM |
| C[C@@H]1CNc2c(sc3ccc4nc(-c5cnc(Cl)[nH]5)ccc4c23)C(=O)N1 [Example I-151, (R)-3-(2-chloro-1H-imidazol-5-yl)-10-methyl-9,10,11,12-tetrahydro-8H-[1,4]diazepino[5′,6′:4,5]thieno[3,2-f]quinolin-8-one] | 23 nM |
| C=Cc1sncc1-c1ccc2c(ccc3sc4c(c32)NC[C@@H](C)NC4=O)n1 [Example I-229, (R)-10-methyl-3-(5-vinylisothiazol-4-yl)-9,10,11,12-tetrahydro-8H-[1,4]diazepino[5′,6′:4,5]thieno[3,2-f]quinolin-8-one] | 123 nM |
| C=Cc1cc(-c2ccc3c(ccc4sc5c(c43)NC[C@@H](C)NC5=O)n2)cc(C)n1 [Example I-110, (R)-10-methyl-3-(2-methyl-6-vinylpyridin-4-yl)-9,10,11,12-tetrahydro-8H-[1,4]diazepino[5′,6′:4,5]thieno[3,2-f]quinolin-8-one] | 8 nM |
| C=Cc1cc(-c2ccc3c(ccc4sc5c(c43)NC[C@@H](C)NC5=O)n2)c(F)c(CN2CCOCC2)n1 [Example I-198, (R)-3-(3-fluoro-2-(morpholinomethyl)-6-vinylpyridin-4-yl)-10-methyl-9,10,11,12-tetrahydro-8H-[1,4]diazepino[5′,6′:4,5]thieno[3,2-f]quinolin-8-one] | 106 nM |
| CC#Cc1nccc(-c2ccc3c(ccc4sc5c(c43)NC[C@@H](C)NC5=O)n2)n1 [Example I-53, (R)-10-methyl-3-(2-(prop-1-yn-1-yl)pyrimidin-4-yl)-9,10,11,12-tetrahydro-8H-[1,4]diazepino[5′,6′:4,5]thieno[3,2-f]quinolin-8-one] | 213 nM |
| C=Cc1cc(-c2ccc3c(ccc4sc5c(c43)NC[C@@H](C)NC5=O)n2)cc(N2CCN(CC)CC2)n1 [Example I-173, (R)-3-(2-(4-ethylpiperazin-1-yl)-6-vinylpyridin-4-yl)-10-methyl-9,10,11,12-tetrahydro-8H-[1,4]diazepino[5′,6′:4,5]thieno[3,2-f]quinolin-8-one] | 35 nM |
